# Experimental data taken from patent publication US20180298405A1, “METHODS AND COMPOSITIONS TO INCREASE HUMAN SOMATIC CELL NUCLEAR TRANSFER (SCNT) EFFICIENCY BY REMOVING HISTONE H3-LYSINE TRIMETHYLATION, AND DERIVATION OF HUMAN NT-ESC” (CHILDREN'S MEDICAL CENTER CORPORATION, priority 2015, published 2018).
# How the values were obtained:
# [1] = test system: H3K9me3; assay: Immunostaining of H3K9me3 in 1-cell mouse SCNT embryos after mRNA injection; assay type: cell-based; settings: 1-cell stage, 5 hours after mRNA injection
# Method: Mouse somatic cell nuclear transfer was carried out as described previously (Matoba et al., 2014). Briefly, both recipient MII oocytes and donor cumulus cells were collected from adult BDF1 female mice through superovulation by injecting 7.5 IU of pregnant mare serum gonadotropin (PMSG; Millipore #367222) and 7.5 IU of human chorionic gonadotropin (hCG; Millipore #230734). Fifteen to seventeen hours after the hCG injection, cumulus-oocyte complexes (COCs) were collected from the oviducts and treated briefly with Hepes-buffered potassium simplex-optimized medium (KSOM) containing 300 U/ml bovine testicular hyaluronidase (Calbiochem #385931) to obtain dissociated MII oocytes and cumulus cells. Isolated MII oocytes were enucleated in Hepes-buffered KSOM medium containing 7.5 jig/ml of cytochalasin B (Calbiochem #250233) by using Piezo-driven micromanipulator (Primetech # PMM-150FU). The nuclei of donor cumulus cells were injected into the enucleated oocytes. After 1 h incubation in KSOM, reconstructed SCNT oocytes were activated by incubating in Ca-free KSOM containing 2.5 mM SrCl2 and 5 jig/ml cytochalasin B for 1 h, and further cultured in KSOM with cytochalasin B for 4 h. […] Preimplantation developmental rates were analyzed by Student's T-test. […]
# [2] = test system: human SCNT blastocysts; assay: Derivation of human NTK-ESCs from KDM4A-assisted SCNT blastocysts; assay type: cell-based
# Method: All expanded blastocysts were treated with acid Tyrode solution to remove the zona pellucida, then the entire blastocysts (without removing trophectoderm) were plated onto mitotically-inactivated mouse fibroblasts (MEFs, Global Stem Inc.) in knockout-DMEM supplemented with Knockout Serum Replacement (10% SR, Invitrogen), FBS (10% Hyclone), bFGF (30 ng/ml), human LIF (2000 units/ml, Sigma-Aldrich), and ROCK inhibitor (1 uM, Sigma-Aldrich). The derivation medium was not changed for the next 3 days, then 1/2 medium was replaced with fresh medium without the ROCK inhibitor daily as previously described (Chung et al., 2008). After 3 passages, the amount of FBS was reduced to 2%, replacing it with SR. After 5 passages, the ES cells were cultured in DMEM/F12 supplemented with FGF (8 ng/ml, Invitrogen), SR (18%, Invitrogen), and FBS (2% Hyclone). After the 10 passages, the ES cells were maintained in DMEM/F12 supplemented with FGF (8 ng/ml) and 20% SR.
substance,measurement,setting,value
"KDM4A mRNA: in vitro transcribed mRNA of full length human KDM4A/JHDM3A cDNA, an H3K9me3 demethylase (SEQ ID NO: 1)",H3K9me3 levels in the nucleus of mouse SCNT embryos,[1],greatly reduced H3K9me3 levels
same,stable NT-ESC lines derived,"[2]; after five passages, from eight expanded blastocysts",four stable NT-ESC lines
same,expanded blastocysts attached to MEF feeder cells and initiated outgrowth,[2]; of eight expanded blastocysts,Seven out of the eight
